Results reported in US7807668B2, “Anti-inflammatory compounds” (New Zealand Institute for Crop & Food Research Limited, priority 2004, dated 2010).
Where two headings read alike, the source gives them in different places.

Legend:
[1] = system: rat glioma cells; conditions: in vitro; cited from earlier work
[2] = system: human neutrophils; experiment: In vitro respiratory burst (superoxide) assay; assay type: cell-based; conditions: Neutrophil, concentration required to reduce superoxide production to 50% of control, PMA-triggered respiratory burst, WST-1 dye reduction, compound 30 min before, read-out: Al50 (the source's name)
Method: Human neutrophils were isolated from anti-coagulated whole human blood using a Polymorphprep (density 1.13 g/mL, centrifuge 500×g, 40 min). Neutrophils were washed with PBS and plated out at 2×10^6 neutrophils per mL.
Neutrophils were treated with the compound (in DMSO) 30 minutes prior to addition of the detection dye WST-1 (5.5 mM). The respiratory burst was triggered by addition of PMA (200 ng/mL) and dye reduction was monitored (OD 450) for 25 minutes at 37° C.
Respiratory burst activity was calculated as the rate of dye reduction over time and was normalised to untreated cell controls. Anti-inflammatory activity is reported in Table 2 as the concentration required to reduce superoxide production to 50% of control, Al50.

[3] = system: neutrophils in the peritoneal wash; experiment: Mouse gout model (monosodium urate crystal-induced murine peritonitis); assay type: in vivo; conditions: Neutrophil, oral, immediately prior to MSU crystals i.p.
Method: Mouse Peritionitis was induced by intraperitoneal injection of 1 to 5 mg monosodium urate (MSU) crystals, in […] PBS (0.1M, pH 7.4). Animals were treated with the compound(s) (in 250 μL PBS orally) at the doses indicated immediately prior to administration of the MSU crystals. 4 hours post administration, animals were euthanased by CO2 exposure. The peritoneal cavity was washed with 3 mL of PBS containing 3 mM EDTA and 25 U/mL of heparin. The total cells in the lavage fluid were counted and an appropriate volume retained for H and E staining for differential counting (Getting et al. Molecular Determinants of Monosodium Urate Crystal—induced Murine Peritonitis: A role for Endogenous Mast Cells and a Distinct Requirement for Endothelial-derived Selectins. J. Pharmacology and Experimental Therapeutics 1997, 283: 123-30).
Treatment groups were as follows:
Untreated Control (Naive)
PBS Control (PBS oral+MSU crystals)
Compound(s),(oral)+MSU crystals

[4] = system: lymphocytic leukemia cells; conditions: in vitro; cited from earlier work
[5] = superoxide activity of neutrophils in peritoneal wash 4 hours post, read-out: % suppression Superoxide production
[6] = peritoneal wash 4 hours post, total neutrophils per mL, read-out: % suppression Neutrophil infiltration

Compound	cytotoxic to rat glioma cells [1]	IC50 [2] [µM]	inhibition in vivo at 25.6 µmol/kg [3, 5] [%]	inhibition in vivo at 25.6 µmol/kg [3, 6] [%]	cytotoxic to lymphocytic leukemia cells [4]
CC(C)=CCCc1ccc2c(c1)C(=O)C1=C(NCCS1(=O)=O)C2=O [(A)]	cytotoxic				
CC(C)=CCCc1ccc2c(c1)C(=O)C1=C(C2=O)S(=O)(=O)CCN1 [(B)]	cytotoxic				
O=C(O)c1ccc2c(n1)C(=O)C1=C(C2=O)S(=O)(=O)CCN1 [Compound 1, 2H-Pyrido[2,3-g][1,4]benzothiazine-5,10-dione, 3,4-dihydr-1,1-dioxo-7-carboxylic acid]		0.14			
O=C(O)c1ccc2c(n1)C(=O)C1=C(NC=CS1(=O)=O)C2=O [Compound 2]		0.07			
COC(=O)c1ccc2c(n1)C(=O)C1=C(C2=O)S(=O)(=O)CCN1 [Compound 3, Methyl-2H-pyrido[2,3-g][1,4]benzothiazine-5,10-dione, 3,4-dihydro-1,1-dioxo-7-carboxylate]		1.12	80		
CCCCCCCCOC(=O)c1ccc2c(n1)C(=O)C1=C(C2=O)S(=O)(=O)CCN1 [Compound 4, Octyl-2H-pyrido[2,3-g][1,4]benzothiazine-5,10-dione, 3,4-dihydro-1,1-dioxo-7-carboxylate]		9.04			
N#Cc1ccc2c(n1)C(=O)C1=C(C2=O)S(=O)(=O)CCN1 [Compound 5, 2H-Pyrido[2,3-g][1,4]benzothiazine-5,10-dione, 3,4-dihydro-1,1-dioxo-7-carbonitrile]		1.57	50	25	
N#Cc1ccc2c(O)c3c(c(O)c2n1)NCCS3(=O)=O [Compound 6, 2H-Pyrido[2,3-g][1,4]benzothiazine-5,10-dihydroxy, 3,4-dihydro-1,1-dioxo-7-carbonitrile]		4.85			
Cc1ccc2c(n1)C(=O)C1=C(C2=O)S(=O)(=O)CCN1 [Compound 9, 2H-Pyrido[2,3-g][1,4]benzothiazine-5,10-dione, 3,4-dihydro-7-methyl-1,1-dioxide]		> 90	80	50	
Cc1ccc2c(n1)C(=O)C1=C(NCCS1(=O)=O)C2=O [Compound 10, 1H-Pyrido[3,2-g][1,4]benzothiazine-5,10-dione, 2,3-dihydro-7-methyl-1,1-dioxide]		> 90	40	30	
O=C1C2=C(NCCS2(=O)=O)C(=O)c2ncccc21 [Compound 11, 2H-Pyrido[2,3-g][1,4]benzothiazine-5,10-dione, 3,4-dihydro-1,1-dioxide]		30	20	30	
CN(C)C(=O)c1ccc2c(n1)C(=O)C1=C(C2=O)S(=O)(=O)CCN1 [Compound 12, 2H-Pyrido[2,3-g][1,4]benzothiazine-5,10-dione, 3,4-dihydro-N,N-dimethyl-1,1-dioxo-7-carboxamide]		79	85	65	
CN(C)C(=O)c1ccc2c(n1)C(=O)C1=C(NCCS1(=O)=O)C2=O [Compound 13, 1H-Pyrido[3,2-g][1,4]benzothiazine-5,10-dione, 2,3-dihydro-N,N-dimethyl-1,1-dioxo-7-carboxamide]		149			
O=C(/C=C/c1ccc2c(n1)C(=O)C1=C(C2=O)S(=O)(=O)CCN1)c1ccccc1 [Compound 16, (E)-1-phenyl-3-(2H-Pyrido[2,3-g][1,4]benzothiazine-5,10-dione, 3,4-dihydro-1,1-dioxide)prop-2-en-1-one.]		7.76	65	30	
O=C1C2=C(NCCS2(=O)=O)C(=O)c2nc(C3OCCO3)ccc21 [Compound 17]		> 74			
O=Cc1ccc2c(n1)C(=O)C1=C(C2=O)S(=O)(=O)CCN1 [Compound 18, 2H-Pyrido[2,3-g][1,4]benzothiazine-5,10-dione, 3,4-dihydro1,1-dioxo-7-carbaldehyde]		4.17	40		
COC(O)c1ccc2c(n1)C(=O)C1=C(C2=O)S(=O)(=O)CCN1 (stereo not drawn) [Compound 19]		13			
O=C(O)c1ccc2c(n1)C(=O)C1=C(C2=O)S(=O)(=O)C=CN1 [Compound 20, 4H-Pyrido[2,3-g][1,4]benzothiazine-5,10-dione-1,1-dioxo-7-carboxylic acid]		0.09			
Cc1ccc2c(n1)C(=O)C1=C(C2=O)S(=O)(=O)C=CN1 [Compound 21, 4H-Pyrido[2,3-g][1,4]benzothiazine-5,10-dione-7-methyl-1,1-dioxide]		8.93	40	30	
O=C1C2=C(C(=O)c3ccccc31)S(=O)(=O)CCN2 [Compound 22, 2H-Naphtho[2,3-b]-1,4-thiazine-5,10-dione, 3,4-dihydro-1,1-dioxide]		> 106	80	25	cytotoxic
